Test results as given in patent US20220187282A1, “CARDIOMYOCYTE PROLIFERATION” (The Council of the Queensland Institute of Medical Research, priority 2019, published 2022).
“Also recorded” adds a separate entry of the source. Read-outs that look alike come from different tables or passages of the source.

Columns and labels:
Format in all cases: biochemical
[1] = target: kinases (Homo sapiens, UniProt Q8IU85); settings: CAMK1D FRET-Z-Lyte SP; Test Conc(μM):ATP Conc(μM) 1:25
[2] = target: kinases (Homo sapiens, UniProt P27448); settings: MARK3 FRET-Z-Lyte SP; Test Conc(μM):ATP Conc(μM) 1:5
[3] = target: kinases (Homo sapiens, UniProt P34947); settings: GRK5 *Mn* FRET-Z-Lyte SP; Test Conc(μM):ATP Conc(μM) 1:5
[4] = target: kinases (Homo sapiens, UniProt Q86YV6); settings: MYLK4 FRET-Lantha SP; Test Conc(μM) 1
[5] = target: kinases (Homo sapiens, UniProt O60674)
[6] = target: kinases (Homo sapiens, UniProt Q6DT37); settings: CDC42 BPG FRET-Z-Lyte SP; Test Conc(μM):ATP Conc(μM) 1:5
[7] = target: kinases (Homo sapiens, UniProt Q96RR4); settings: CAMKK2 (Beta) FRET-Lantha SP; Test Conc(μM) 1
[8] = target: kinases (Homo sapiens, UniProt Q7L7X3); settings: TAOK1 FRET-Lantha SP; Test Conc(μM) 1
[9] = target: kinases (Homo sapiens, UniProt P35968); settings: KDR (VEGFR2) FRET-Z-Lyte SP; Test Conc(μM):ATP Conc(μM) 1:75
[10] = target: kinases (Homo sapiens, UniProt Q00537); settings: CDK17/cyclin Y FRET-Z-Lyte SP; Test Conc(μM):ATP Conc(μM) 1:50
[11] = target: kinases (Homo sapiens, UniProt Q8N752); settings: CSNK1A1L FRET-Z-Lyte SP; Test Conc(μM):ATP Conc(μM) 1:5
[12] = target: kinases (Homo sapiens, UniProt Q86V86); settings: PIM3 FRET-Z-Lyte SP; Test Conc(μM):ATP Conc(μM) 1:1000
[13] = target: kinases (Homo sapiens, UniProt Q9Y6E0); settings: STK24 (MST3) FRET-Z-Lyte SP; ATP Conc(μM):Test Conc(μM) 1:50
[14] = target: kinases (Homo sapiens, UniProt Q00526); settings: CDK3/cyclin E1 FRET-Lantha SP; Test Conc(μM) 1
[15] = target: kinases (Homo sapiens, UniProt Q9UK32); settings: RPS6KA6 (RSK4) FRET-Z-Lyte SP; Test Conc(μM):ATP Conc(μM) 1:25
[16] = target: kinases (Homo sapiens, UniProt P24941)
[17] = target: kinases (Homo sapiens, UniProt Q13164); settings: MAPK7 (ERK5) FRET-Z-Lyte SP; Test Conc(μM):ATP Conc(μM) 1:10
[18] = target: kinases (Homo sapiens, UniProt Q07912); settings: TNK2 (ACK) FRET-Lantha SP; Test Conc(μM) 1
[19] = target: kinases (Homo sapiens, UniProt Q9H3Y6); settings: SRMS (Srm) FRET-Z-Lyte SP; Test Conc(μM):ATP Conc(μM) 1:150
[20] = target: kinases (Homo sapiens, UniProt P53779)
[21] = target: kinases (Homo sapiens, UniProt Q08881); settings: ITK FRET-Z-Lyte SP; Test Conc(μM):ATP Conc(μM) 1:5
[22] = target: kinases (Homo sapiens, UniProt O75716); settings: STK16 (PKL12) FRET-Lantha SP; Test Conc(μM) 1
[23] = target: kinases (Homo sapiens, UniProt Q9UPE1); settings: STK23 (MSSK1) FRET-Z-Lyte SP; Test Conc(μM):ATP Conc(μM) 1:75
[24] = target: kinases (Homo sapiens, UniProt Q9UKE5); settings: TNIK FRET-Lantha SP; Test Conc(μM) 1
[25] = target: kinases (Homo sapiens, UniProt P54753); settings: EPHB3 FRET-Z-Lyte SP; Test Conc(μM):ATP Conc(μM) 1:75
[26] = target: kinases (Homo sapiens, UniProt Q9NWZ3); settings: IRAK4 *Mn* FRET-Z-Lyte SP; Test Conc(μM):ATP Conc(μM) 1:25
[27] = test system: kinases
[28] = target: kinases (Homo sapiens, UniProt P21709); settings: EPHA1 FRET-Z-Lyte SP; Test Conc(μM):ATP Conc(μM) 1:25
[29] = JAK2 FRET-Z-Lyte SP, Test Conc(μM):ATP Conc(μM) 1:25
[30] = CDK2/Cyclin E1 FRET-Lantha SP, Test Conc(μM) 1
[31] = CDK2/Cyclin O FRET-Lantha SP, Test Conc(μM) 1
[32] = CDK2/cyclin A1 FRET-Lantha SP, Test Conc(μM) 1
[33] = CDK2/cyclin A FRET-Z-Lyte SP, Test Conc(μM):ATP Conc(μM) 1:25
[34] = MAPK10 (JNK3) FRET-Lantha SP, Test Conc(μM) 1
[35] = MAPK10 (JNK3)Cascade Z-Lyte SP, Test Conc(μM):ATP Conc(μM) 1:100
[36] = LYN B FRET-Z-Lyte SP, Test Conc(μM):ATP Conc(μM) 1:25
[37] = PRKCB2 (PKC Beta II) Z-Lyte SP, Test Conc(μM):ATP Conc(μM) 1:200

Chain of kinases (Homo sapiens, UniProt O60674) (O60674 whole entry): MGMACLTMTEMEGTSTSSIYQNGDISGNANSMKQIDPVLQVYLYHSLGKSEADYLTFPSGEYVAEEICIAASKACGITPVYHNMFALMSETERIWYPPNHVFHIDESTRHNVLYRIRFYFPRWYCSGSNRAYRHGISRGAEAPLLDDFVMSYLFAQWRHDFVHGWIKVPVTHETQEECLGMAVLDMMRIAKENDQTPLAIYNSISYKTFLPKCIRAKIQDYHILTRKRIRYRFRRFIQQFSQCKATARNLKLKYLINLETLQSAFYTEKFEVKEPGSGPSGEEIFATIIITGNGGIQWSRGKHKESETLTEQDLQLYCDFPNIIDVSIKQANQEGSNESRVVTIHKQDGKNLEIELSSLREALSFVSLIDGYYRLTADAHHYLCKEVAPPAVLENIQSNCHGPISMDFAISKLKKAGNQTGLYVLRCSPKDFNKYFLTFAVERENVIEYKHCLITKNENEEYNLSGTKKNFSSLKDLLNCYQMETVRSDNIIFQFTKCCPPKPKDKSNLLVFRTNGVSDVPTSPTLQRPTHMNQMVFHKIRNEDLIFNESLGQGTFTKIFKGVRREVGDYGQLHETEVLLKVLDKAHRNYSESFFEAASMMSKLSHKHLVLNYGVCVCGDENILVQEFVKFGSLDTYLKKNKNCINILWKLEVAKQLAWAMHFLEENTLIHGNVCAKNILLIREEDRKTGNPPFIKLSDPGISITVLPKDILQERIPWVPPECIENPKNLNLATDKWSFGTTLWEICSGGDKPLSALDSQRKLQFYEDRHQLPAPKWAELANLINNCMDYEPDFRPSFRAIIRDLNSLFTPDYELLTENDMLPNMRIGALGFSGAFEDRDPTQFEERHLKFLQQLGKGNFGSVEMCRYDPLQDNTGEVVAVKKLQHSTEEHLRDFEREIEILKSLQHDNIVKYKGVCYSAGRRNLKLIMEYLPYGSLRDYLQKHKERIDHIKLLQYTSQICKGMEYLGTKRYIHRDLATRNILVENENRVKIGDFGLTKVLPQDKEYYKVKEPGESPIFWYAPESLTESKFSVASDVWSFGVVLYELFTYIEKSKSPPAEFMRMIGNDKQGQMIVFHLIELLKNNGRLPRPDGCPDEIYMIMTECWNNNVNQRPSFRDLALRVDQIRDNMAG
Chain of kinases (Homo sapiens, UniProt P53779) (P53779 whole entry): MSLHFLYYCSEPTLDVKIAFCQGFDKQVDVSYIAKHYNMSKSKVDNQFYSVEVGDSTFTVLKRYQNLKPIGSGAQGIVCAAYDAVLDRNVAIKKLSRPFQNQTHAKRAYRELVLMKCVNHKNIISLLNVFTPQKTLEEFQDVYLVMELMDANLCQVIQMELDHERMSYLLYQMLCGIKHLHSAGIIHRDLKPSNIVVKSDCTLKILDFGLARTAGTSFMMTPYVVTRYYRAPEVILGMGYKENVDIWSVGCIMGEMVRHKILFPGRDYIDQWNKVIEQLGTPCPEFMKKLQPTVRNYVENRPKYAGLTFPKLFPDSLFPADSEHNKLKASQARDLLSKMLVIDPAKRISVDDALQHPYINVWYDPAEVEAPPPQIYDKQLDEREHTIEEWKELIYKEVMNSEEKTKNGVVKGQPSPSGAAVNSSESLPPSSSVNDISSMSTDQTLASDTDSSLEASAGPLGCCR
Chain of kinases (Homo sapiens, UniProt Q13164) (Q13164 whole entry): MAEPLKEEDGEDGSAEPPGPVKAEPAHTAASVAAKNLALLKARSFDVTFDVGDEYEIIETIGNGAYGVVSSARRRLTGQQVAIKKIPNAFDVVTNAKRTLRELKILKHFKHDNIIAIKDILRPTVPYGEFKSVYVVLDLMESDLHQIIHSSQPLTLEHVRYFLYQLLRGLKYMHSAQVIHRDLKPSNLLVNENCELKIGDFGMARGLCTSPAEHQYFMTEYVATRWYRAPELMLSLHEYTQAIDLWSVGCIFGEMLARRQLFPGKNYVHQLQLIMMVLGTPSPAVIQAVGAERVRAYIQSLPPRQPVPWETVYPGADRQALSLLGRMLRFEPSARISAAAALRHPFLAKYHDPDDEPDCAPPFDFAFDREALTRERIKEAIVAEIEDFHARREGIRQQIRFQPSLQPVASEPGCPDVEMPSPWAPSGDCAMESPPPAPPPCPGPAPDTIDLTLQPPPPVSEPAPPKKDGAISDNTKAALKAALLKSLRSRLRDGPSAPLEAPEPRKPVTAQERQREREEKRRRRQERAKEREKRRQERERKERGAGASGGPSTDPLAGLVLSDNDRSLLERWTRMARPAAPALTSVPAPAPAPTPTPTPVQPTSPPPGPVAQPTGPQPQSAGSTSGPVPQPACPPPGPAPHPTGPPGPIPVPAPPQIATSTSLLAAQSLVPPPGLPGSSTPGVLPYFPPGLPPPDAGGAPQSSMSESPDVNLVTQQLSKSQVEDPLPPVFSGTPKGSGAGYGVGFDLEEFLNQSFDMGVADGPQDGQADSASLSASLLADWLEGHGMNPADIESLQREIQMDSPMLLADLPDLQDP
Chain of kinases (Homo sapiens, UniProt Q86YV6) (Q86YV6 whole entry): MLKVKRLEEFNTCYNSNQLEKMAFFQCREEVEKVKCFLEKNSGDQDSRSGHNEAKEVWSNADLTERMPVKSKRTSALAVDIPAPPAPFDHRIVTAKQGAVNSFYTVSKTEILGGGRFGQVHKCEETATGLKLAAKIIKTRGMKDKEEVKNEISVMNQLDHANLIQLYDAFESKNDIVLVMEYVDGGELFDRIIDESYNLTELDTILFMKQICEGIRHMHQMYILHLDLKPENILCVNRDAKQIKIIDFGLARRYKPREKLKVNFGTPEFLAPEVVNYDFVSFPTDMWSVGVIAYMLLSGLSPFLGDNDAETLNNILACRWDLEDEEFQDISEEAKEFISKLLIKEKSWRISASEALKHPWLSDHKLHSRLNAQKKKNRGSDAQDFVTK
Chain of kinases (Homo sapiens, UniProt Q07912) (Q07912 whole entry): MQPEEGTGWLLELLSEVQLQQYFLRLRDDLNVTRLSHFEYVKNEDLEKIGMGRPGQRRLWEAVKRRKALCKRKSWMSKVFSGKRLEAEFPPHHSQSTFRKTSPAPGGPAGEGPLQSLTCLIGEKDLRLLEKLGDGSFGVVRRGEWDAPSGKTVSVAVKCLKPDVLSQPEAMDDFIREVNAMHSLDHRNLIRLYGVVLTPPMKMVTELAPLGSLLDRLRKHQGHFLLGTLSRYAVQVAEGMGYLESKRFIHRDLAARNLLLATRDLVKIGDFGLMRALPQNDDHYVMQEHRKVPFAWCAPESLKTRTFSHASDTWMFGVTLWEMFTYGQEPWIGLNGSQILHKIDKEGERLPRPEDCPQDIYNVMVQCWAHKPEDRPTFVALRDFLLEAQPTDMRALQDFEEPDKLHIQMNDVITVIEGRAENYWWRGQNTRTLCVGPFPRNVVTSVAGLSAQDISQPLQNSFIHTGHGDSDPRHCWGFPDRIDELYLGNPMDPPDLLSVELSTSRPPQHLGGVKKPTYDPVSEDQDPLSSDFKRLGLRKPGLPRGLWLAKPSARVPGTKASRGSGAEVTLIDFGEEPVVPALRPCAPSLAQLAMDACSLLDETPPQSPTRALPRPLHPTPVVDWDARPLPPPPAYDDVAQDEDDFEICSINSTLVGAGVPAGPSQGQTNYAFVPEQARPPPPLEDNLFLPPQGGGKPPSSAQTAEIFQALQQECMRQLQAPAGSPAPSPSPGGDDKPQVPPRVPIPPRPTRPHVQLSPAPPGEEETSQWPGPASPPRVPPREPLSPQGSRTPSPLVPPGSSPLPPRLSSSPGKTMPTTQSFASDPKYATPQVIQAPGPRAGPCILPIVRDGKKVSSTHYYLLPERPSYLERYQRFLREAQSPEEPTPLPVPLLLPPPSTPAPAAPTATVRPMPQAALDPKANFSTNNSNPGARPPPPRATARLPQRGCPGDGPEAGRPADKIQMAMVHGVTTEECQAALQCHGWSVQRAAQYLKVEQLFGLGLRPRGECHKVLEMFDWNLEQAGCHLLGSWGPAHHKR
Chain of kinases (Homo sapiens, UniProt P34947) (P34947 whole entry): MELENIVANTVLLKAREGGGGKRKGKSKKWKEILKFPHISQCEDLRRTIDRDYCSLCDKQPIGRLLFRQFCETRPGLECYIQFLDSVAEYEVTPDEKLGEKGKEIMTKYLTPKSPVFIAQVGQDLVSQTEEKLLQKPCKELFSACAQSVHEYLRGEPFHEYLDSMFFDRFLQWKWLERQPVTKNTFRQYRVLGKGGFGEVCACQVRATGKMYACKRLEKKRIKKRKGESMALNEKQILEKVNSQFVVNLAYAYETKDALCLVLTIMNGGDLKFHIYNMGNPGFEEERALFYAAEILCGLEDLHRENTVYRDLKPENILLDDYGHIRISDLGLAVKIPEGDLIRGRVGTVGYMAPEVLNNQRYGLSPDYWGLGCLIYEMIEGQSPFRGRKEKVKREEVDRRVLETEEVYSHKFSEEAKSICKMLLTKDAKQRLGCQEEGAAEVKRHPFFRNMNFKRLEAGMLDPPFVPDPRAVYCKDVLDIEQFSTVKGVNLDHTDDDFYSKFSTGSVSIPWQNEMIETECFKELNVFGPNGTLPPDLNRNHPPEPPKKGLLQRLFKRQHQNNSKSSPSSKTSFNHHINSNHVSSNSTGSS

| SMILES | Mean Inhib (%) [1] | Mean Inhib (%) [2] | Mean Inhib (%) [3] | Mean Inhib (%) [4] | Mean Inhib (%) [5, 29] | Mean Inhib (%) [6] | Mean Inhib (%) [7] | Mean Inhib (%) [8] | Mean Inhib (%) [9] | Mean Inhib (%) [10] | Mean Inhib (%) [11] | Mean Inhib (%) [12] | Mean Inhib (%) [13] | Mean Inhib (%) [14] | Mean Inhib (%) [15] | Mean Inhib (%) [16, 30] | Mean Inhib (%) [16, 31] | Mean Inhib (%) [16, 32] | Mean Inhib (%) [16, 33] | Mean Inhib (%) [17] | further results |
| --- | --- | --- | --- | --- | --- | --- | --- | --- | --- | --- | --- | --- | --- | --- | --- | --- | --- | --- | --- | --- | --- |
| Cc1cc(Oc2ccnc(Nc3ccc(S(N)(=O)=O)cc3)c2)c(-c2ccccn2)nc1C [compound 65] | −7.6% | 4.7% | 4.6% | 14.6% | 4.7% | −5.0% | −3.4% | 33.0% | 3.8% | 9.6% | 0.5% | −2.6% | 4.9% | 9.6% | −0.7% | 10.6% | 3.0% | 4.9% | 5.0% | 6.6% | Mean Inhib (%) ([5]; JAK2 JH1 JH2 FRET-Z-Lyte SP, ATP Conc(μM):Test Conc(μM) 1:50): −3.9%; Mean Inhib (%) [18]: 6.5%; Mean Inhib (%) [19]: 1.5%; Mean Inhib (%) [20, 34]: 5.5%; Mean Inhib (%) [20, 35]: 1.1%; Mean Inhib (%) [21]: −6.9%; Mean Inhib (%) [22]: 3.4%; Mean Inhib (%) [23]: −4.8%; Mean Inhib (%) [24]: 58.4%; Mean Inhib (%) [25]: 1.6%; Mean Inhib (%) [26]: 6.8%; Mean Inhib (%) [27, 36]: 42.0%; Mean Inhib (%) [27, 37]: −1.0%; Mean Inhib (%) [28]: 55.3% |
| Cc1ccc(NC(=O)c2ccnc(N3CCOCC3)c2)cc1Nc1ccnc(N2CC(C)OC(C)C2)n1 (stereo not drawn) [compound 3] | 0.0% | 8.9% | 4.7% | 5.1% | −7.7% | 2.2% | −2.5% | −6.0% | 3.2% | 0.9% | 2.0% | −1.4% | −7.6% | 6.0% | −9.0% | 13.8% | 2.7% | −1.8% | 6.2% | 0.2% | Mean Inhib (%) ([5]; JAK2 JH1 JH2 FRET-Z-Lyte SP, ATP Conc(μM):Test Conc(μM) 1:25): −0.1%; Mean Inhib (%) [18]: 0.2%; Mean Inhib (%) [19]: 6.2%; Mean Inhib (%) [20, 34]: −0.2%; Mean Inhib (%) [20, 35]: 10.6%; Mean Inhib (%) [21]: 6.1%; Mean Inhib (%) [22]: −1.7%; Mean Inhib (%) [23]: 4.3%; Mean Inhib (%) [24]: 4.1%; Mean Inhib (%) [25]: −0.5%; Mean Inhib (%) [26]: 12.7%; kinase specificity (kinase inhibition profile) [27]: strong specificity in targeting p38α; also recorded: very specific for p38α/β; Mean Inhib (%) [27, 36]: 16.3%; Mean Inhib (%) [27, 37]: −11.1%; Mean Inhib (%) [28]: 6.7% |
